Numbered stars: 1 amine (or outer) side, 2 acyl side, 3 side chain; on linkers, the order of the positions; unused ones are H or OH. Square brackets hold non-standard residues; d marks the D form. Peptide text beside a SMILES is read from it. * marks the point of attachment. Dolaproine = CO[C@@H]([C@@H]1CCCN1)[C@@H](C)C(=O)O; Hexanoyl(6-maleimido) = O=C1C=CC(=O)N1CCCCCC(=O)*; Dil = CC[C@H](C)[C@H](NC)[C@@H](CC(=O)O)OC; PABC = O=C(OCc1ccc(N[*:1])cc1)[*:2]; X1 = C[C@@H](N*)[C@@H](O)c1ccccc1; Cit = NC(=O)NCCC[C@H](N)C(=O)O; NMeV = CN[C@H](C(=O)O)C(C)C
Key:
soft-tissue sarcoma = conditions: minimal cardiac toxicity; cited from earlier work
PANC1 cells [1] = assay: Uptake of fluorescein-albumin conjugate with macropinocytosis inhibitor, PANC1 cells; format: cell-based, human; conditions: EIPA 50 μM and 75 μM, flow cytometer
Protocol: (§1) FIGS. 10A-10B: (A) MIA PaCa2 cells and (B) PANC1 cells were seeded in 12-well plates at 5×10^5 cells/well and allowed to attach overnight. Cells were first starved in serum free medium for 2 hours followed by treatment with macropinocytosis inhibitor (EIPA: 5-(N-Ethyl-N-isopropyl)amiloride) for 30 min. […] Then cells were detached and analyzed by flow cytometer (Accuri). […] (*p<0.05, **p<0.01)

MIA PaCa2 cells [2] = assay: Uptake of fluorescein-albumin conjugate with macropinocytosis inhibitor, MIA PaCa2 cells; format: cell-based, human; conditions: EIPA 50 μM and 75 μM, flow cytometer
Protocol: as §1

[3] = Maximum tolerated dose in healthy athymic NCr nude mice; format: in vivo
Protocol: Maximum tolerated dose: All animal experiments were approved and performed under the guidelines by the Institutional Animal Care and Use Committee at. The University of Texas at Austin. […] Mice were injected every 4 days for a total of 4 repeated doses. Body weight and general appearance of each mice were monitored for 10 days after the last dose of injection.

[4] = Tissue distribution of free and total MMAE in MIA PaCa2 tumor-bearing mice; format: in vivo; conditions: 24 hours after single dose
Protocol: (§2) Quantification of MMAE by LC-MS: An Agilent 1260 Infinity liquid chromatography system (G1312B) with an Agilent 6530 Q-TOF mass spectrometer was used to detect the drug MMAE. 5 μL of sample was injected into an Eclipse Plus C18 column (50×2.1 mm, 5 μm) followed by a gradient elution at 0.7 mL/min. […] Electrospray ionization source was used in positive mode. To derive standard curves for MMAE, drug standards were spiked into blank matrix along with internal standard. Samples were then prepared for LC-MS analysis. MMAE was monitored at m/z 740 [M+Na]+, 719 [M+H]+, 371 [M+Na+1-1]^2+ and 360 [M+2H]^2±. Deuterated (D8) MMAE as internal standard was monitored at m/z 748 [M+Na]+, 727 [M+H]+, 375 [M+Na+1-1]^2+ and 364 [M+2H]^2±. The peak area of each drug standard was derived by the peak area of internal standard. The peak area ratios were then plotted as a function of standard concentrations and data points were fitted using linear regression (GraphPad). MMAE concentrations in test samples were quantified using the peak area ratio between MMAE and D8-MMAE and calculated using the standard curves.
(§3) Pharmacokinetics and tissue distribution: Thirty-six mice bearing MIA PaCa2 tumors were equally divided into 4 groups. […] All treatment arms were dosed with an equivalent amount of MMAE at 0.5 mg/kg. At 10 min, 24 h, 48 h, 72 h, 96 h and 168 h post-administration, blood samples were collected from 3 mice in each group through tail vein. Plasma was separated immediately using BD microtainer. At 24 h, 72 h and 168 h after administration, 3 mice from each group were euthanized to collect liver, kidney, and tumor tissue samples. Plasma and tissue samples were stored at −80° C. until further analysis.
(§4) To determine the amount of free MMAE in plasma samples, 1 μL D8-MMAE (250 ng/mL) internal control was added into 10 μL plasma samples and then mixed with 89 μL acetonitrile. The mixture was thoroughly mixed and centrifuged (12,000 rpm, 20 min, 4° C.). The supernatant was collected for LC-MS quantification. To determine free MMAE in mouse tissues, weighed tissues were homogenized with ice-cold PBS containing protease inhibitors (cOmplete™ ULTRA Tablets, Roche) using a tissue homogenizer (Fisher Scientific) to a final concentration of 600 mg/mL. The homogenized suspension was centrifuged at 12,000 rpm for 20 min at 4° C. As an internal control, 1 μL D8-MMAE (250 ng/mL) was added into 20 μL of the supernatant and then mixed with 79 μL acetonitrile. After the mixture was mixed and centrifuged, the supernatant was collected for LC-MS for quantification.
(§5) Briefly, freshly prepared papain (Sigma-Aldrich) was added to plasma and tissue samples at a final concentration of 2 mg/mL, and the mixtures were incubated at 40° C. for 16 hours. The resulting samples were treated as method described above for LC-MS quantification.

MIA PaCa2 xenografts = assay: In vivo antitumor efficacy, MIA PaCa2 xenografts; design: species or system mice; conditions: every 4 days, 4 doses; for tumor growth: 0.5 mg/kg MMAE equivalent
Protocol: Tumor-bearing mouse models: Eight to ten week old athymic female NCr nude mice and C57BL/6 mice (Taconic) were used to establish xenograft mouse model and syngeneic mouse model, respectively. […] The cell suspension was then gently mixed with equal volume of Matrigel® (Corning). Subsequently, 100 μL of each mixed cell suspension (MIA PaCa2 and mT4-2D) was subcutaneously inoculated into both flanks of NCr nude mice and C57BL/6 mice, respectively. After the tumors were palpable, tumor volumes were measured two times a week. The tumor volume was calculated as (1/2×length×[…]).
In vivo antitumor efficacy: Mice bearing MIA PaCa2 xenografts and syngeneic mT4-2D C57BL/6 mice were randomized when the tumor sizes were ˜150 mm^3, respectively. […] Tumor sizes were measured by a digital caliper twice a week starting from Day 0. Mice were euthanized when either tumor volume exceeded 1500 mm^3.
Statistical analysis: All of the experiments were repeated at least three times. Statistical significance was calculated using two-way ANOVA followed by Tukey's test. Survival curve was analyzed by log-rank test using GraphPad Prism 8 software.

[5] = Body weight change at 0.9 mg/kg MMAE equivalent dose; format: in vivo, mice; conditions: multiple dosing
Protocol: FIGS. 15A-15E: Body weight change of mice when dosed with 0.9 mg/kg MMAE equivalent dose. […] Body weights of mice during and after treatments were monitored. (n=5). Data shown as mean±standard deviation. Mice in MMAE group (B) were dosed with 0.9 mg/kg MMAE at Day 0 and 4.

[6] = Plasma pharmacokinetics of free and total MMAE in MIA PaCa2 tumor-bearing mice; format: in vivo; conditions: for plasma concentration of free MMAE: 10 min after single intravenous dose, 0.5 mg/kg MMAE equivalent
Protocol: as §2, §3, §4, §5

MIA PaCa2 cells [7] = assay: MTT assay, MIA PaCa2 cells; format: cell-based, human
Text: (§6) Cell lines and culture: Human pancreatic cancer cell line MIA PaCa2 cells and primary umbilical vein endothelial cells (HUVEC) were purchased from American Type Culture Collection (ATCC). Human pancreatic cancer cell line PANC1 cells were kindly provided by Dr. Zhengrong Cui (College of Pharmacy, The University of Texas at Austin). Mouse mT4-2D pancreatic cancer cell line, which is derived from a Kras^+/LSL-G12DTp53^+/LSL-R172HPdx1-Cre transgenic model of pancreatic cancer, was kindly provided by Dr. Kyaw Aung (Livestrong Cancer Institutes, Dell Medical School, The University of Texas at Austin). MIA PaCa2 cells, PANC1, and mT4-2D cells were maintained in Dulbecco's […] with high glucose (Corning). Cell culture medium was supplemented with 10% fetal bovine serum (Gibco) and 100 U/mL penicillin-streptomycin (Gibco). HUVEC cells were maintained according to protocol provided by ATCC. All cells were maintained at 37° C. in a humidified atmosphere with 5% carbon dioxide.
(§7) MTT Assay: Cells were seeded in 96 well plates at a density of 5,000 cells/well. Cells were incubated overnight to allow attachment to the bottom of the plates. […] Untreated cells were used as control. After the treatments, 10 μL of MTT (3-(4,5-Dimethylthiazol-2-yl)-2,5-Diphenyltetrazolium Bromide, 5 mg/mL) was added to each well and incubated for an additional 4 hours. Then, the medium was replaced with 150 μL dimethyl sulfoxide (DMSO). After the formazan crystals were completely dissolved, the absorbance at 570 nm was read by a plate reader (Infinite®200 Pro, Tecan). Cell survival rate was calculated as follows: […]
(§8) The IC50 (half maximal inhibitory concentration) was calculated using GraphPad Prism 8.

PANC1 cells [8] = assay: MTT assay, PANC1 cells; format: cell-based, human
Text: as §6, §7, §8

HUVEC cells = assay: MTT assay, HUVEC cells; format: cell-based, human
Text: as §6
MTT Assay: Cells were seeded in 96 well plates at a density of 5,000 cells/well. […] After the formazan crystals were completely dissolved, the absorbance at 570 nm was read by a plate reader (Infinite®200 Pro, Tecan). Cell survival rate was calculated as follows: […]
as §8

[9] = total MMAE in plasma, 0.5 mg/kg i.v.

## COc1cccc2c1C(=O)c1c(O)c3c(c(O)c1C2=O)C[C@@](O)(/C(CO)=N/NC(=O)CCCCCN1C(=O)C=CC1=O)C[C@@H]3O[C@H]1C[C@H](N)[C@H](O)[C@H](C)O1 [aldoxorubicin]
soft-tissue sarcoma
  safely administered dose compared to doxorubicin: 3.47 fold

## CCN(c1nc(N)c(C(=O)N=C(N)N)nc1Cl)C(C)C [EIPA, 5-(N-Ethyl-N-isopropyl)amiloride]
PANC1 cells [1]
  inhibition of uptake of fluorescein-albumin conjugate (ALDC1): significantly inhibit
MIA PaCa2 cells [2]
  inhibition of uptake of fluorescein-albumin conjugate (ALDC1): significantly inhibit

## CC[C@H](C)[C@@H]([C@@H](CC(=O)N1CCC[C@H]1[C@H](OC)[C@@H](C)C(=O)N[C@H](C)[C@@H](O)c1ccccc1)OC)N(C)C(=O)[C@@H](NC(=O)[C@H](C(C)C)N(C)C(=O)OCc1ccc(NC(=O)[C@H](CCCNC(N)=O)NC(=O)[C@@H](NC(=O)CCCCCN2C(=O)C=CC2=O)C(C)C)cc1)C(C)C [MMAE-MAL, mc-vc-pab-MMAE] ({Hexanoyl(6-maleimido)}-V[Cit][PABC][NMeV]V[Dil][Dolaproine]-X1)
[3]; percent weight loss from original weight
  maximum tolerated dose compared with ALDC1: lower maximum tolerated dose
[4]
  amount of free MMAE in tumor compared to the MMAE group: about 2 fold
[4]; 0.5 mg/kg MMAE
  accumulation of free MMAE in tumor: 2.2 % ID/g
  total MMAE in liver: 0.3 % ID/g
  total MMAE in tumor: 3.3 % ID/g
[4]; no statistical difference to MMAE group
  free MMAE in the liver and kidney: low levels
MIA PaCa2 xenografts
  tumor growth: significantly delayed
MIA PaCa2 xenografts; 0.5 mg/kg equivalent to MMAE
  median survival of tumor-bearing mice: 81 days
[5]
  loss of body weight: ~20%
[6]
  plasma concentration of free MMAE: 669.67 ± 78.94 ng/mL
[6]; free MMAE, 10 min after dosing, 0.5 mg/kg
  premature release of MMAE in plasma compared to the ALDC1 group: 13 fold
[6]; [9]
  AUC 0-∞: 141.1938 µg·h/mL
  AUMC 0-∞: 2827552.1 ng/ml*h^2
  Cl: 3.54E−06 (mg/kg)/(ng/ml)/h
  MRT: 20.02 h
  T1/2: 27.82 h
[6]; total MMAE in plasma, time 0 to 168 hours, 0.5 mg/kg i.v.
  AUC 0-t: 139.9281 µg·h/mL

## CC[C@H](C)[C@@H]([C@@H](CC(=O)N1CCC[C@H]1[C@H](OC)[C@@H](C)C(=O)N[C@H](C)[C@@H](O)c1ccccc1)OC)N(C)C(=O)[C@@H](NC(=O)[C@@H](NC)C(C)C)C(C)C [MMAE, monomethyl auristatin E] (H-[NMeV]V[Dil][Dolaproine]-X1)
[3]; MMAE equivalent dose, every 4 days, 4 doses, body weight change within 20%
  maximum tolerated dose: approximately 0.5 mg/kg
MIA PaCa2 cells [7]; 24 hours
  IC50: 0.54 nM
MIA PaCa2 cells [7]; 48 hours
  IC50: 0.46 nM
MIA PaCa2 cells [7]; 72 hours
  IC50: 0.5 nM
PANC1 cells [8]; 24 hours
  IC50: 0.52 nM
PANC1 cells [8]; 48 hours
  IC50: 0.21 nM
PANC1 cells [8]; 72 hours
  IC50: 0.21 nM
HUVEC cells; 24 hours
  IC50: 0.067 nM
HUVEC cells; 48 hours
  IC50: 0.012 nM
MIA PaCa2 xenografts
  tumor growth: slowed down tumor growth
[5]
  loss of body weight: > 20%
[6]
  plasma concentration of free MMAE: 86.03 ± 17.78 ng/mL

— patent US20230218773A1 (priority 2020, published 2023)
